According to patent US20100061994A1, “MEDICAL USES OF 39-DESMETHOXYRAPAMYCIN AND ANALOGUES THEREOF” (priority 2005, published 2010):

What was measured:
EAE = assay: Experimental allergic encephalomyelitis (EAE) model of multiple sclerosis; assay type: in vivo, male Lewis rats
A498 = assay: Monolayer assay Protocol 2 (SRB), high MDR-expressing cell lines; assay type: cell-based, human; details: Renal A498, high MDR-expressing, 48 h
Procedure: (§1) The human tumor cell lines of the National Cancer Institute (NCI) cancer screening panel were grown in RPMI 1640 medium containing 5% fetal bovine serum and 2 mM L-glutamine (Boyd and Paull, 1995). Cells were inoculated into 96 well microtiter plates in 0.1 mL at plating densities ranging from 5,000 to 40,000 cells/well depending on the doubling time of individual cell lines. After cell inoculation, the microtiter plates were incubated at 37° C., 5% CO2, 95% air and 100% relative humidity for 24 h prior to addition of experimental drugs.
(§2) After 24 h, two plates of each cell line were fixed in situ with trichloroacetic acid (TCA), to represent a measurement of the cell population for each cell line at the time of drug addition (Tz). Experimental drugs were solubilized in dimethyl sulfoxide at 400-fold the desired final maximum test concentration and stored frozen prior to use. At the time of drug addition, an aliquot of frozen concentrate was thawed and diluted to twice the desired final maximum test concentration with complete medium containing 0.05 mg/mL gentamicin. Additional four, 10-fold or ½ log serial dilutions were made to provide a total of five drug concentrations plus control. Aliquots of 0.1 mL of these different drug dilutions were added to the appropriate microtiter wells already containing 0.1 mL of medium, resulting in the required final drug concentrations.
(§3) Following drug addition, the plates were incubated for an additional 48 h at 37° C., 5% CO2, 95% air, and 100% relative humidity. For adherent cells, the assay was terminated by the addition of cold TCA. Cells were fixed in situ by the gentle addition of 0.05 mL of cold 50% (w/v) TCA (final concentration, 10% TCA) and incubated for 60 minutes at 4° C. The supernatant was discarded, and the plates were washed five times with tap water and air dried. Sulforhodamine B (SRB) solution (0.1 mL) at 0.4% (w/v) in 1% acetic acid was added to each well, and plates were incubated for 10 minutes at room temperature. After staining, unbound dye was removed by washing five times with 1% acetic acid and the plates were air dried. Bound stain was subsequently solubilized with 10 mM trizma base, and the absorbance was read on an automated plate reader at a wavelength of 515 nm. […] Using the seven absorbance measurements [time zero, (Tz), control growth, (C), and test growth in the presence of drug at the five concentration levels (Ti)], the percentage growth was calculated at each of the drug concentrations levels. Percentage growth inhibition was calculated as:
(§4) Three dose response parameters were calculated for each experimental agent. […] The drug concentration resulting in total growth inhibition (TGI) was calculated from Ti=Tz. […]

SF295 = assay: as above; assay type: cell-based, human; details: CNS SF295, high MDR-expressing, 48 h
Procedure: as §1, §2, §3, §4

SW-620 = assay: as above; assay type: cell-based; details: Homo sapiens; Colon SW-620, high MDR-expressing, 48 h
Procedure: as §1
as §2, with “Aliquots of 0.1 mL of these different drug dilutions were added to the appropriate microtiter wells already containing 0.1 mL of medium, resulting in the required final drug concentrations.” left out
(§5) Following drug addition, the plates were incubated for an additional 48 h at 37° C., 5% CO2, 95% air, and 100% relative humidity. […] Bound stain was subsequently solubilized with 10 mM trizma base, and the absorbance was read on an automated plate reader at a wavelength of 515 nm. […] Using the seven absorbance measurements [time zero, (Tz), control growth, (C), and test growth in the presence of drug at the five concentration levels (Ti)], the percentage growth was calculated at each of the drug concentrations levels. Percentage growth inhibition was calculated as:
as §4

UO-31 = assay: as above; assay type: cell-based; details: Homo sapiens; Renal UO-31, high MDR-expressing, 48 h
Procedure: as §1
as §2, with “Aliquots of 0.1 mL of these different drug dilutions were added to the appropriate microtiter wells already containing 0.1 mL of medium, resulting in the required final drug concentrations.” left out
as §5, §4

HOP-62 = assay: as above; assay type: cell-based; details: Homo sapiens; NSCLC HOP-62, high MDR-expressing, 48 h
Procedure: as §1
as §2, with “Aliquots of 0.1 mL of these different drug dilutions were added to the appropriate microtiter wells already containing 0.1 mL of medium, resulting in the required final drug concentrations.” left out
as §5, §4

[1] = 5 mg/kg p.o., Prophylactic regime
[2] = 5 mg/kg p.o., Therapeutic regime
[3] = 15 mg/kg p.o., Prophylactic regime
[4] = 15 mg/kg p.o., Therapeutic regime

`COC1CC2CCC(C)C(O)(O2)C(=O)C(=O)N2CCCCC2C(=O)OC(C(C)CC2CCC(O)CC2)CC(=O)C(C)C=C(C)C(O)C(OC)C(=O)C(C)CC(C)C=CC=CC=C1C` (centres unmarked) [39-desmethoxyrapamycin] was tested, and the “Cumulative score Mean ± St Dev.” value (EAE; [1]) was 17 ± 4.6, the “Duration (days) Mean ± St Dev.” value (EAE; [1]) was 10 ± 1.8 days and the “Onset Mean ± St Dev.” value (EAE; [1]) was 12 ± 2.1. For the same molecule, the “Cumulative score Mean ± St Dev.” value (EAE; [2]) was 30 ± 3.1, the “Duration (days) Mean ± St Dev.” value (EAE; [2]) was 15 ± 1.3 days and the “Onset Mean ± St Dev.” value (EAE; [2]) was 10 ± 1.0. For the same molecule, the “Cumulative score Mean ± St Dev.” value (EAE; [3]) was 22 ± 22, the “Duration (days) Mean ± St Dev.” value (EAE; [3]) was 10 ± 3.4 days and the “Onset Mean ± St Dev.” value (EAE; [3]) was 12 ± 2.4. For the same molecule, the “Cumulative score Mean ± St Dev.” value (EAE; [4]) was 32 ± 5.7, the “Duration (days) Mean ± St Dev.” value (EAE; [4]) was 16 ± 3.3 days and the “Onset Mean ± St Dev.” value (EAE; [4]) was 9 ± 1.4. The “efficacy in the EAE model compared to cyclophosphamide” value (EAE; 5 and 15 mg/kg, prophylactic and therapeutic regime) was “equivalent efficacy in this model to cyclophosphamide”, the “Log GI50” value (A498) was −7.07 and the “Log GI50” value (SF295) was −5.85.

Work on `CO[C@H]1C[C@@H]2CC[C@@H](C)[C@@](O)(O2)C(=O)C(=O)N2CCCC[C@H]2C(=O)O[C@H]([C@H](C)C[C@@H]2CC[C@@H](O)[C@H](OC)C2)CC(=O)[C@H](C)/C=C(\C)[C@@H](O)[C@@H](OC)C(=O)[C@H](C)C[C@H](C)/C=C/C=C/C=C/1C` [Rapamycin] yielded a GI50 (SW-620) of 25.1 µM, a GI50 (UO-31) of 0.1 µM and a GI50 (HOP-62) of 0.234 µM. The GI50 (A498; Homo sapiens) was 0.251 µM and the GI50 (SF295; Homo sapiens, SF-295) was 0.1 µM.
